Target: T1, OGT (Homo sapiens, UniProt O15294)
T1 construct: hOGT4.5 construct (spanning residues 313-1031 based on the numbering of the full length human protein); made in house
T1 sequence (O15294 313-1031 isoform O15294-3): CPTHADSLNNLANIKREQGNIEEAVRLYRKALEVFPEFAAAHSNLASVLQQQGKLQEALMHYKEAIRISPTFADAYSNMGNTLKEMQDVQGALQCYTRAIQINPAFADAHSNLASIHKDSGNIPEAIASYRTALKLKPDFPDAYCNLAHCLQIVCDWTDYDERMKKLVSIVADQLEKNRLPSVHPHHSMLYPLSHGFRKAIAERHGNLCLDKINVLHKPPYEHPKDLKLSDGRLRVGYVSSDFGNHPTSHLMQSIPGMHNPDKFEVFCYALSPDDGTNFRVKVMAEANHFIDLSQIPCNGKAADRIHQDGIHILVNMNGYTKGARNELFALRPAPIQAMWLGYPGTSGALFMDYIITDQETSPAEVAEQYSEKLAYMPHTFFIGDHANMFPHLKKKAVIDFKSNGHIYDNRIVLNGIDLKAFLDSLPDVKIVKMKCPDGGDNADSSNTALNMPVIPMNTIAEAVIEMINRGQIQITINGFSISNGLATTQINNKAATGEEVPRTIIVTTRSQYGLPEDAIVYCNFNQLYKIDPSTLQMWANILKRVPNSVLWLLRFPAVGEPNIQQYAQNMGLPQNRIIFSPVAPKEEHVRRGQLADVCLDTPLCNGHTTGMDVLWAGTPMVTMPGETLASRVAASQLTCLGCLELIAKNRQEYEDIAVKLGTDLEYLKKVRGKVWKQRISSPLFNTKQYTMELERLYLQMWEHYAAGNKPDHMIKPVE
Test: Western blot of BZX inhibitor treated cell lysates (O-GlcNAcylation by added OGT)
Format: biochemical
Settings: MCF-10A ErbB2 cell lysates; OGT 2 μM, UDP-GlcNAc 1 mM, BZX inhibitors 200 μM
Protocol: […] ErbB2 cells were maintained in DMEM/F12 (Invitrogen) supplemented with 5% horse serum (Invitrogen), 20 ng/ml EGF (Peprotech), 10 μg/ml insulin (Sigma), 100 ng/ml cholera toxin (Sigma), […] hydrocortisone (Sigma), 50 U/ml penicillin, and 50 μg/ml streptomycin (Invitrogen) to reach 70% confluence. The cells were then grown for another 9 hours in glucose starvation medium (DMEM-no glucose (Invitrogen) supplemented with 1% horse serum, 50 U/ml penicillin and 50 μg/ml streptomycin) before harvest. The cell lysates, prepared as described above, were divided into four tubes with each tube containing the same amount of protein. Nothing was added to tube I; OGT (2 μM) and DMSO (1%) were added into tube II; OGT (2 μM) and (2) (200 μM) were added to tube III; OGT (2 μM) and 1 (200 μM) were added to tube IV. The four samples were incubated at room temperature for 30 min before adding UDP-GlcNAc (1 mM) and incubated for another 2 hours. After incubation, all samples were analyzed with SDS-PAGE and a Western blot was carried out using the anti-O-GlcNAc antibody as described above.

COc1ccc(OC(=O)n2c(=O)oc3cc(C(C)=O)ccc32)cc1 [Compound 2]
inhibition of OGT activity (O-GlcNAcylation) in cell lysates: more potent inhibitor of OGT activity than compound (1)
